One assay addresses T1, TTK (Homo sapiens, UniProt P33981).
T1 sequence (P33981 1-857): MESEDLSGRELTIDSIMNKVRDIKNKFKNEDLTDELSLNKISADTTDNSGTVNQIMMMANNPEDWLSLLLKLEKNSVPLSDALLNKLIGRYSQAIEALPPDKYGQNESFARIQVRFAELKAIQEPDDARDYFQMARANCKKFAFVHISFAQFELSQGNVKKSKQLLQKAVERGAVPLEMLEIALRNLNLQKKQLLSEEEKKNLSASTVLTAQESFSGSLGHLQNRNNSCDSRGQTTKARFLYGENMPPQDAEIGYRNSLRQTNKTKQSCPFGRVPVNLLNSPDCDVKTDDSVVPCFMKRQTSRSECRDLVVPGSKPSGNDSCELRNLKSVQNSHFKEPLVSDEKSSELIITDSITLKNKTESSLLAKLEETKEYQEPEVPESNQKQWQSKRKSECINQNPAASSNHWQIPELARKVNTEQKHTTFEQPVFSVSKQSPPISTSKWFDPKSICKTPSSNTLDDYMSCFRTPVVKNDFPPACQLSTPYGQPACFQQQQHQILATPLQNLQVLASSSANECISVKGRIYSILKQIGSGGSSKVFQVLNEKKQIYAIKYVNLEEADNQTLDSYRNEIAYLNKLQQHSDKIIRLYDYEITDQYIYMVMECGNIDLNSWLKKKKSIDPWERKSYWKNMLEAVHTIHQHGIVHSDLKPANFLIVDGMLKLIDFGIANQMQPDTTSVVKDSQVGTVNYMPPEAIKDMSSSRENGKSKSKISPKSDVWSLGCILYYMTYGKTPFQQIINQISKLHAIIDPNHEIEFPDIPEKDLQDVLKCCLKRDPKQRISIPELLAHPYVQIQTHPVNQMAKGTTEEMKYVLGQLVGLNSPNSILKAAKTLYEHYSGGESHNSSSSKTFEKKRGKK
Briefly: TTK inhibition assay ([γ-33P]ATP transfer to phosphorylated MBP). The class given is biochemical. More on the design: A. Recombinant TTK enzyme. The following applies: read-out: inhibition of the protein kinase activity of TTK, IC50. Here is the method: The compounds of the invention were also tested in the following assay to determine TTK-inhibitory activity. This assay measures transfer of radioactive phosphate from ATP to a protein substrate in the presence or absence of a test compound.
MATERIALS: • A. Recombinant TTK enzyme; • B. Phosphorylated myelin basic protein (MBP); • C. [γ-^33P]ATP: 1 mCi/100 μL; • D. Positive Control: a proprietary compound known to have […] in this assay.
Final concentrations of reaction mixture components (50 μl total volume): 50 mM Tris-HCl, pH 7.5; 0.01% Triton X-100; 10 mM MgCl2; 25 ng TTK (˜4 nM); 5 μM Phosphorylated MBP; 40 μM ATP (1 μCi/well, adjusted ATP specific activity according to strength of radiolabeled ATP).
Mixes were assembled in the wells of a 96-well polypropylene plate as follows: 1 μL 50× compound to be tested; 39 μL 1.282× Reaction Mix; 10 μL 5×ATP Mix.
The following reaction/assay steps were then performed: • 1. Mix thoroughly and incubate at room temperature for 45 minutes; • 2. Add 70 μL/well, except in background wells, of 3% phosphoric acid to terminate reaction, and transfer 100 μL to P81 filter plate; • 3. Wash with 1% phosphoric acid, then dry the P81 filter plate completely; • 4. Add 100 μL/well MicroSint-20 (PerkinElmer #6013621) and seal; • 5.

Assay [1] concerns the target T2, JAK1 (Homo sapiens, UniProt P23458).
T2 construct: Cellular proteins were prepared by mild sonication in lysis buffer; endogenous in cells
Briefly: In vitro binding assays.

For assay [2], the target named is T3, Aurora A (Homo sapiens, UniProt O14965).
T3 sequence (O14965 1-403): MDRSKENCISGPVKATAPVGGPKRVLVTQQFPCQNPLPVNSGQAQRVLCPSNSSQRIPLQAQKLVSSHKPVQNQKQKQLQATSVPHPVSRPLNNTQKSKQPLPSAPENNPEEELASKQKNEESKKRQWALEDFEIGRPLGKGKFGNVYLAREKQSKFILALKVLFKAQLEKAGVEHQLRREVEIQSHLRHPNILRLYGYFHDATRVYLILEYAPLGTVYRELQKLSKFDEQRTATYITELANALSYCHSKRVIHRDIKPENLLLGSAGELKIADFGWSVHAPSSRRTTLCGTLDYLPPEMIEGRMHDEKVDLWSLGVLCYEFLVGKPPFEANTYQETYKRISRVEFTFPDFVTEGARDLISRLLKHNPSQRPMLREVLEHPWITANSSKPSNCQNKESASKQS
Briefly: In vitro binding assays.

For assay [3], the target named is T4, FER (Homo sapiens, UniProt P16591). Briefly: In vitro binding assays.
In assay [4] the target is T2, JAK1. Briefly: Direct target affinity purification (DTAP) from cell lysates. The class given is binding. To be noted: compound coupled to Sepharose beads. From the text:
(§1) Direct target affinity purification (DTAP) was used to investigate (1) the selectivity of compounds of the invention for TTK, relative to other kinases, and (2) the importance of a specific methyl substituent in providing that selectivity.
(§2) In preparation for DTAP studies, the two compounds depicted above were synthesized with an alkyl-amine linker to allow covalent coupling to epoxy-activated Sepharose 6B beads (GE Healthcare, Piscataway, N.J.). Sepharose beads were swollen and washed with water for 30 min followed by equilibration in coupling buffer (50% dimethylformamide, 50 mM Na2CO3). Beads were pelleted by centrifugation (15 sec at 2000×g) and the supernatant removed by aspiration. An equal volume of coupling buffer containing the linkered test compound was used to resuspend the beads. Compound concentrations in the coupling reaction ranged from 0.1 mM to 12.5 mM. The coupling reactions were incubated at 34° C. for 18 hrs on a rotator mixer. Ethanolamine was added to 1 M for the final 1 hr to quench the coupling reaction. Beads were washed extensively with binding buffer (1 M NaCl, 50 mM Hepes [pH 7.4], 1% Triton X-100, 1 mM EDTA and 1 mM dithiothreitol) to remove residual coupling reagents, and were then stored at 4° C.
(§3) Cellular proteins were prepared by mild sonication in lysis buffer (150 mM NaCl, 50 mM Hepes [pH 7.4], 1% Triton X-100, 1 mM EDTA and 2 mM dithiothrietol containing 1× Halt™ protease and phosphatase inhibitor cocktail [Thermo Fisher Scientific, Rockford, Ill.]). Lysates were centrifuged (20,000×g for 20 min) to remove debris, diluted to a protein concentration of ˜5 mg/ml, divided into aliquots, and stored at −80° C.
(§4) For DTAP reactions, cell lysates (˜0.5 ml per binding reaction) were thawed and the NaCl concentration adjusted to 1 M. Competitor compounds dissolved in DMSO (or a DMSO control) were then added to the lysate and incubated on ice for 5 min. The lysates were centrifuged at 20,000×g for 10 min and the cleared supernatant was transferred to a tube containing 50 μl of coupled beads. The binding reactions were incubated on a rotator mixer at 4° C. for 2 hrs, after which the beads were pelleted by centrifugation and the supernatant removed by aspiration. The beads were washed three times with 20 volumes of binding buffer, 2× with 20 volumes wash buffer (150 mM NaCl, 50 mM Hepes [pH 7.4], 1% Tween 20, 1 mM EDTA, 2 mM dithiothrietol) and finally twice with 10 volumes of 150 mM NaCl, 50 mM Hepes [pH 7.4].
(§5) During the final wash, an aliquot containing 10 μl of beads was transferred to a separate tube and resuspended with 15 μl of 2× SDS/PAGE loading buffer (Invitrogen Corporation, Carlsbad, Calif.) for 5 min at 90° C. The eluted proteins were resolved by electrophoresis on a NuPage 4-12% Bis-Tris Gel (Invitrogen Corporation, Carlsbad, Calif.) and visualized by staining with Ruby Red (Invitrogen Corporation, Carlsbad, Calif.). The remaining beads (40 μl) were processed for analysis by mass spectrometry.

Assay [5] addresses T4, FER. The description is as above. The class given is binding. To be noted: compound coupled to Sepharose beads.
Description: as §1, §2, §3, §4, §5

For assay [6], the target named is T3, Aurora A. The description is as above. The class given is binding. To be noted: compound coupled to Sepharose beads.
Description: as §1, §2, §3, §4, §5

For assay [7], the target named is T5, JNK (Homo sapiens, UniProt P45983). The assay is described as above. The following applies: compound coupled to Sepharose beads. The class given is binding.
Description: as §1, §2, §3, §4, §5

Assay [8] has as its target T5, JNK. Briefly: In vitro binding assays.
In assay [9] the test system is p53 on serine 15 and H2AX on serine 139. Briefly: Effect of ATM, ATM/ATR and DNA-PK inhibitors on Compound A-induced phosphorylation in HCT-116 cells. The class given is cell-based. To be noted: 5 μM inhibitor with 1 μM Compound A. Here is the method:
Phosphorylation of either p53 on serine 15 or H2AX on serine 139 is often mediated by the DNA damage checkpoint proteins, ATM or ATR. […] As a positive control, cells were treated with the UV mimetic 4-NQO (5 μM). Cell lysates were analyzed by Western blot with anti-p53, anti-p53-pS15, anti-H2AX-pS139 and anti-GAPDH antibodies (see FIGS. 6A-6C). […] Phosphorylation of p53 on serine 15 and H2AX on serine 139 appears mediated by ATR kinase in response to TTK inhibition.

A further assay concerns HCT-116 cells. Briefly: Effect of caspase inhibition on Compound A responses in HCT-116 cells. The class given is cell-based. Here is the method: Caspase 3/7 activity was determined with a Caspase-Glo 3/7 assay (see FIG. 7A). Cell lysates were analyzed by Western blot with antibodies specific for H2AX-pS139, p53-pS15, p53 or GAPDH (see FIG. 7B).
For the next assay, the system named is HeLa cells. Briefly: Cell cycle progression after double thymidine block (propidium iodide, flow cytometry). The class given is cell-based. The following applies: VX-680 at 500 nM. Here is the method: HeLa cells were synchronized in the G1 phase of the cell cycle using a double thymidine block. The cells were released from the block by removing the media and replacing it with media containing DMSO, 500 nM VX-680 (Aurora inhibitor), or a TTK inhibitor. At the indicated time points, cells were fixed with methanol, permeabilized and stained with propidium iodide. DNA content was analyzed using a Guava EasyCyte flow cytometer.
This is due to improper spindle formation and chromosome segregation followed by failed cytokinesis. Previously, it has been shown that inhibition of TTK using siRNA results in chromosome missegregation and mitotic defects. Using TTK inhibitors of the present invention, defects in chromosome segregation were observed. Therefore, the effect of the TTK inhibitors of the present invention were analyzed for their effect on cell cycle progression and/or DNA content.
On the technique in general: In flow cytometry, cells or beads pass a laser one at a time.

Structures are written as SMILES. Peptide text beside a SMILES is read from it. * marks the point of attachment. Cbz = O=C(OCc1ccccc1)*; CH2F = FC*

Usually IC50 stands for the concentration at which inhibition is half-maximal.

T2 sequence (P23458 whole entry, species assumed): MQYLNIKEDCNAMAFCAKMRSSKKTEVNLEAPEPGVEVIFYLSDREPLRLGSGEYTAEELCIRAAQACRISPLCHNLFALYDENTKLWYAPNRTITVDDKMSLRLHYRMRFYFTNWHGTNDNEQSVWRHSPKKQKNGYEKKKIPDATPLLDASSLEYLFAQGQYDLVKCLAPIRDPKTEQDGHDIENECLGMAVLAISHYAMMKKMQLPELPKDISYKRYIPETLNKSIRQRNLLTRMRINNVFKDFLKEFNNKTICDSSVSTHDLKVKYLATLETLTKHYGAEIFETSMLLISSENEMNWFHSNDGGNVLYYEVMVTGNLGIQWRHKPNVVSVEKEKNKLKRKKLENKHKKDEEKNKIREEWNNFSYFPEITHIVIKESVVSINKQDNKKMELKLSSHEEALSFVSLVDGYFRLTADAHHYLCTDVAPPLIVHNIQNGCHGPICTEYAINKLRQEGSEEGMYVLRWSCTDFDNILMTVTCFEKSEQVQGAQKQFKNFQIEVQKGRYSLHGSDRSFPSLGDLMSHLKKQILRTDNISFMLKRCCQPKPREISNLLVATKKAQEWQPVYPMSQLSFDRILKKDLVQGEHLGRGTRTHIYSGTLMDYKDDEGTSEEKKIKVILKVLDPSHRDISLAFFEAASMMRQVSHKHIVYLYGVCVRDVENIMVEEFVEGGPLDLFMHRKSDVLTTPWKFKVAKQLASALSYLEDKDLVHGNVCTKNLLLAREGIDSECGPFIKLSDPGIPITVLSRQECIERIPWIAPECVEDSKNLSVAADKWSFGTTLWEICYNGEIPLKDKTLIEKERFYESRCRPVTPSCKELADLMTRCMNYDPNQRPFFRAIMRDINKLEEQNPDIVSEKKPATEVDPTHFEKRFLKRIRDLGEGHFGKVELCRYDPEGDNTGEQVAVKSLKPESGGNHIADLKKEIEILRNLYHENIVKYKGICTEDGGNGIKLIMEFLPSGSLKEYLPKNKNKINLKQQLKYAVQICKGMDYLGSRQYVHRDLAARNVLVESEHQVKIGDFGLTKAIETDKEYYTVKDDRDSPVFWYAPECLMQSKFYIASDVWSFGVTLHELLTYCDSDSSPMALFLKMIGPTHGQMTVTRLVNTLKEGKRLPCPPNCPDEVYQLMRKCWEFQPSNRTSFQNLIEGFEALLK
T4 sequence (P16591 whole entry, species assumed): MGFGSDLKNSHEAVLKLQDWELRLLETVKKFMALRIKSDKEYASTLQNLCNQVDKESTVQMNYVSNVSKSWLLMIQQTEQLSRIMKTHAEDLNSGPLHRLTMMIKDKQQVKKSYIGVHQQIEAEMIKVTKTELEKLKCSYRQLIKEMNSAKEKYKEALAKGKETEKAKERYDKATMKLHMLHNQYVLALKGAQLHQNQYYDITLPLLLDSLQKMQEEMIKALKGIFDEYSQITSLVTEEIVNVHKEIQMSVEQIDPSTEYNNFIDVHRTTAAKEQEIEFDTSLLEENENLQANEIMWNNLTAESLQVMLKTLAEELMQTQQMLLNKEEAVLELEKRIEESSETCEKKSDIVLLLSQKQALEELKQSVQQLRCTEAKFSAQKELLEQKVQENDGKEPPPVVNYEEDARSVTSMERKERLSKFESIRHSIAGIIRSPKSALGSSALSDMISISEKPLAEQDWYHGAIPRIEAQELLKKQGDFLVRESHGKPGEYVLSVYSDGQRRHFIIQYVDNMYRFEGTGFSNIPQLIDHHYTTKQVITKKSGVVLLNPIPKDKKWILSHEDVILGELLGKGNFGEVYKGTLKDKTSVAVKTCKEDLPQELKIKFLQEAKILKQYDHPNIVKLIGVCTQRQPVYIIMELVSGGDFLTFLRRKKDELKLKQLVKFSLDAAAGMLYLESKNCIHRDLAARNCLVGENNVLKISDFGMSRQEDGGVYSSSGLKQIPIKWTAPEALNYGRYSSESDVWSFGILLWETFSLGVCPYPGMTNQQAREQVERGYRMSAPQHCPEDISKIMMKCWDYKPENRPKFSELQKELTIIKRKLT
T5 sequence (P45983 whole entry): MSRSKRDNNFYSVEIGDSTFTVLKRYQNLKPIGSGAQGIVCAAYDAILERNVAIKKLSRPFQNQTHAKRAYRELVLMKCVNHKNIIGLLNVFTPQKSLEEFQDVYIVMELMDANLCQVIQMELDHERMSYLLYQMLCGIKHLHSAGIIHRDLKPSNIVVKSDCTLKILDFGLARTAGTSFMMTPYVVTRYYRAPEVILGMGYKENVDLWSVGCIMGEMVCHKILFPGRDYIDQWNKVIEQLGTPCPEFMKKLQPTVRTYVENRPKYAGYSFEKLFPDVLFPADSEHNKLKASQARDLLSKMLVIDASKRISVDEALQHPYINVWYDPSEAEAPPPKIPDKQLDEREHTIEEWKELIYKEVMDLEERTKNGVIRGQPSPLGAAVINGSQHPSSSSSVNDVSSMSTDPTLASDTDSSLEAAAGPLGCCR

On to `Cc1cc(OCCCN)ccc1Nc1nc(NC2CCCCC2)c2nc[nH]c2n1` [N2-(4-(3-Aminopropoxy)-2-methylphenyl)-N6-cyclohexyl-9H-purine-2,6-diamine], for which the IC50 is 3 nM on TTK; > 5 µM on JAK1 [1]; > 5 µM at Aurora A [2]; 380 nM at FER [3]; 120 nM on JNK [8]. Besides, on JAK1 [4], the “binding of JAK1 from cell lysates to bead-coupled compound” value is “reduced affinity”. Besides, the “binding of FER from cell lysates to bead-coupled compound” value on FER [5] is on record as “reduced affinity”. Also, the “binding of Aurora A from cell lysates to bead-coupled compound” value at Aurora A [6] is given as “failed to bind”. Also, on JNK [7], the “binding of JNK from cell lysates to bead-coupled compound” value was “reduced affinity”.

Consider `O=C(NC(NC(=S)Nc1ccc(F)c([N+](=O)[O-])c1)C(Cl)(Cl)Cl)C(c1ccccc1)c1ccccc1` (centres unmarked) [CGK733], for which, in assay [9], the “effect on p53 (and H2AX) phosphorylation in response to Compound A” value was “blocked p53 and H2AX phosphorylation”.

`O=c1cc(-c2cccc3c2Sc2ccccc2S3)oc(N2CCOCC2)c1` [KU-55933]: the “effect on p53 (and H2AX) phosphorylation in response to Compound A” value in assay [9] was “had no effect”.

Regarding `COC(=O)C[C@H](NC(=O)[C@H](C)NC(=O)[C@@H](NC(=O)OCc1ccccc1)C(C)C)C(=O)CF` [Z-VAD-FMK] (Cbz-Val-Ala-Asp(OMe)-CH2F), the “effect on TTK inhibitor-induced H2AX phosphorylation” value in the assay on HCT-116 cells (100 μM Z-VAD-FMK 1 hour before 1 μM Compound A, 48 hours) is listed as “prevents TTK inhibitor-induced H2AX phosphorylation”. Moreover, the “effect on TTK inhibitor-induced p53 phosphorylation and on cell viability” value in the assay with HCT-116 cells (100 μM Z-VAD-FMK pre-treatment, viability after 72 hours (Cell Titer-Glo)) was “has no effect on either p53 phosphorylation or cell viability”.

Take `Cc1cc(Nc2cc(N3CCN(C)CC3)nc(Sc3ccc(NC(=O)C4CC4)cc3)n2)n[nH]1` [VX-680]: in the assay with HeLa cells, the “DNA content / cell cycle progression after release from G1 block” value is given as “causes cells to become tetraploid”.

The record behind these values is patent publication US20120122840A1, “COMPOUNDS AND THERAPEUTIC USES THEREOF” (Myrexis, Inc., priority 2009, published 2012).
